The text below walks through data of ChEMBL document CHEMBL4418910, “Methods for categorising cancer such as breast cancer” (2018).

The structures appear in SMILES notation.

Assay [1] has as its target T1, Serine/threonine-protein kinase LMTK3 (Homo sapiens) (UniProt Q96Q04).
T1 sequence (whole entry): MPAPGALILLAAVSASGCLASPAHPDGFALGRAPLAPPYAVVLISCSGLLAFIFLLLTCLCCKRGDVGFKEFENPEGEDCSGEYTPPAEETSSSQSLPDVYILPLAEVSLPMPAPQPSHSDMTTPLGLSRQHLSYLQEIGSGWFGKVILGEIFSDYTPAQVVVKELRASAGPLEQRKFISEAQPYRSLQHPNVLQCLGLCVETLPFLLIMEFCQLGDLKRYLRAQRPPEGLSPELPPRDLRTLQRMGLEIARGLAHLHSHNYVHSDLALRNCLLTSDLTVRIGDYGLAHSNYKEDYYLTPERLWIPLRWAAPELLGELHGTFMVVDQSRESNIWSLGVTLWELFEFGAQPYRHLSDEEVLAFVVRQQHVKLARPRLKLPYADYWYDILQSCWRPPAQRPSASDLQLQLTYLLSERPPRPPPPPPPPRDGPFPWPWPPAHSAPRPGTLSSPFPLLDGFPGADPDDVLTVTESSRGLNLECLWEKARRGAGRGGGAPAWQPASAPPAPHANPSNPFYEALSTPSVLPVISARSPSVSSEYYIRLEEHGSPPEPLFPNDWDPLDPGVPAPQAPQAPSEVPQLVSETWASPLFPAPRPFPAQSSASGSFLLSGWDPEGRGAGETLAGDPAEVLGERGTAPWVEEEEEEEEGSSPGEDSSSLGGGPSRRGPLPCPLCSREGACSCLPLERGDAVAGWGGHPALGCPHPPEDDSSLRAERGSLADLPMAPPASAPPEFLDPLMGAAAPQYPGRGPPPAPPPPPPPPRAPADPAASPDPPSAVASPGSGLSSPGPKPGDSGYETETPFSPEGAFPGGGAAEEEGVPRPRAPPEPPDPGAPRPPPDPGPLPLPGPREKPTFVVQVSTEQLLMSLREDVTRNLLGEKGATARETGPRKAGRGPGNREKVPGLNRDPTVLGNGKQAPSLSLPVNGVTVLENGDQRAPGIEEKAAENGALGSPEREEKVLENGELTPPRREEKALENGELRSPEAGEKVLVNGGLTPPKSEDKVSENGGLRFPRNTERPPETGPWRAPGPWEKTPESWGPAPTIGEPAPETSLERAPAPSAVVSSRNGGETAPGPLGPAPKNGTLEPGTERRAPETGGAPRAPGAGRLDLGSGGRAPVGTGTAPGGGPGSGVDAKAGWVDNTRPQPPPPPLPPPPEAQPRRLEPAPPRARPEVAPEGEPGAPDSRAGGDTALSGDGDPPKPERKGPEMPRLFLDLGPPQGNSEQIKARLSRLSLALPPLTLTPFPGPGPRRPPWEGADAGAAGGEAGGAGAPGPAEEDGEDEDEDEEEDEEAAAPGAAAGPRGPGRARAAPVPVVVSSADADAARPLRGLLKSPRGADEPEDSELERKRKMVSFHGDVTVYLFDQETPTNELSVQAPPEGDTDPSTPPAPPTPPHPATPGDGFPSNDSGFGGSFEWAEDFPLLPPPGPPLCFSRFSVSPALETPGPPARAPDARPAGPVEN
The experiment in a line: Inhibition of N-terminal GST tag LMTK3 kinase domain (133 to 415 amino acids) (unknown origin) expressed in insect cells incubated for 120 mins by […] fluorescent detection based CisBio KinEASE STK-S1 kit based assay relative to untreated control.

The target in assay [2] is T2, Serine/threonine-protein kinase LMTK3 (Homo sapiens, UniProt Q96Q04).
T2 sequence (Q96Q04 whole entry): T1 sequence (whole entry)
Put plainly: Inhibition of N-terminal GST tag LMTK3 kinase domain (133 to 415 amino acids) (unknown origin) expressed in insect cells incubated for 120 mins by […] fluorescent detection based CisBio KinEASE STK-S1 kit based assay.

For the compound `CN[C@@H]1C[C@H]2O[C@@](C)([C@@H]1OC)n1c3ccccc3c3c4c(c5c6ccccc6n2c5c31)C(=O)NC4`, the inhibition in assay [1] worked out at 109%. Still for that read-out and setting: in the case of `COC(=O)[C@@]1(O)C[C@H]2O[C@]1(C)n1c3ccccc3c3c4c(c5c6ccccc6n2c5c31)C(=O)NC4` it was 98.9%. On to `CN(C)CCCn1cc(C2=C(c3c[nH]c4ccccc34)C(=O)NC2=O)c2ccccc21` [GF-109203], for which the inhibition in assay [1] worked out at 108%. In assay [2], this compound had an IC50 of 0.132 nM.

With `CCCCCCOC(=O)[C@]1(O)C[C@H]2O[C@]1(C)n1c3ccccc3c3c4c(c5c6ccccc6n2c5c31)C(=O)NC4`, the inhibition in assay [1] worked out at 98.7%. In assay [2], this compound showed an IC50 of 0.117 nM.

The term inhibition denotes the drop in the measured response relative to a control, in per cent. What is called IC50 is the concentration needed to halve the response being measured.
